Non-standard residues stand in square brackets, D forms with d. Residues, ends and D or L forms follow the SMILES beside them. No end group written: not given here. hPhe = N[C@@H](CCc1ccccc1)C(=O)O; NMeD = CN[C@@H](CC(=O)O)C(=O)O; NMeL = CN[C@@H](CC(C)C)C(=O)O; NMeV = CN[C@H](C(=O)O)C(C)C

For one test, the target named is T1, human ribonucleotide reductase (hRR) (Homo sapiens, UniProt P23921).
T1 construct: Preparation of cell extract containing human ribonucleotide reductase (hRR); endogenous in cells; host or cells: HeLa cells (ATCC CCL 2.2); extract cleared with streptomycin sulphate, 50% ammonium sulphate cut, diafiltered
T1 sequence (P23921 1-792): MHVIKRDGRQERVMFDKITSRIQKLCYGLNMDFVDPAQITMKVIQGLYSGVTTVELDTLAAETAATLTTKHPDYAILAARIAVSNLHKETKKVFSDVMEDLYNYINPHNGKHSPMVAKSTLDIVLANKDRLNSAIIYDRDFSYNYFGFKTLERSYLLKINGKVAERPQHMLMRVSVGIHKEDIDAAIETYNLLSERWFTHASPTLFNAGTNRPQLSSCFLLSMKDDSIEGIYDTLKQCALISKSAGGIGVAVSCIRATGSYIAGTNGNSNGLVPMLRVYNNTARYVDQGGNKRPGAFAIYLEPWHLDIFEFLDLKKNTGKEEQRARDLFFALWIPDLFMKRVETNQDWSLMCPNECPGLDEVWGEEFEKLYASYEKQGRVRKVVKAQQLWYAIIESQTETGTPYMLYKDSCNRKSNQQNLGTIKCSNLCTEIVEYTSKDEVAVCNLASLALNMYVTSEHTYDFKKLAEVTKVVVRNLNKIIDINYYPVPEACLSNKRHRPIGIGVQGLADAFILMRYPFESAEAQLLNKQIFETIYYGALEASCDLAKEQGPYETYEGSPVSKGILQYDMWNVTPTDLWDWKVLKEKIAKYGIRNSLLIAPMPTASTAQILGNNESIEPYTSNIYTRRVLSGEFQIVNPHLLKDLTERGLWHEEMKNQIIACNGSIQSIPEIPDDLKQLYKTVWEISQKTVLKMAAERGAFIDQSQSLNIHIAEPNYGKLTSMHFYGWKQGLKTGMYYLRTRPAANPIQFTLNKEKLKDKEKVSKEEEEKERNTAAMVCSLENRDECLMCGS
In words: Inhibition of Human Ribonucleotide Reductase Assay. Type of test: biochemical. The note with it: Hela cell extract; conversion of (14C)CDP to (14C)dCDP; text of Example 3; read-out: IC50. Here is the method: Inhibition of Human Ribonucleotide Reductase Assay
(a) Cell line: Hela cells (ATCC CCL 2.2), human epitheloid carcinoma, cervix.
(b) Cell culture: Cells were incubated in a medium consisting of Iscove's Modified Dulbecco Medium, pH 7.2-7.4 (Gibco Canada Inc., Burlington, ON, Canada) supplemented with 10% by volume of fetal calf serum, heat inactivated (Gibco Canada Inc.), 1 millimolar (mM) of sodium pyruvate, 100 units/ml of penicillin G, 100 μg/ml of streptomycin and 2 mM of L-glutamine. The incubation was done in a 1 l spinner flask at 37° C. under a mixture of 5% CO2 in air. Cell-containing media (75% of culture volume) was withdrawn semicontinuously at 24-48 h intervals. Fresh media was added each time to replace withdrawn media. Final cell density at harvest was 1-2×10^6 cells/ml.
(c) Preparation of cell extract containing human ribonucleotide reductase (hRR)
The harvested culture media obtained above was subjected to low speed centrifugation. The resulting cell pellet was processed according to the following steps. (All steps were performed at 4° C. unless noted otherwise.) […]
(a) Standard Reaction Mixture […]
The activity of RR was quantitated by following the conversion of radiolabeled cytidine diphosphate to radiolabeled deoxycytidine diphosphate, i.e. (^14 C)CDP to (^14 C)dCDP. The amount of cell extract utilized in the assay was that which gave a linear response between enzyme concentration and CDP conversion (ca. 200 μg of protein per assay).
After addition of the cell extract, the assay mixture was incubated at 37° C. for 30 min. The reaction was stopped by immersing the vessel containing the assay mixture in boiling water for 4 min. Nucleotides in the supernatant were then converted to nucleosides by the addition of excess Crotalus adamenteus snake venom (ca. 20 μl of a preparation of 40 mg/ml of the venom in an aqueous solution of 14 mM tris(hydroxymethyl)aminomethane (pH 8.8) and 46.5 mM MgCl2), followed by incubating the resulting mixture for 60 min at 37° C. The enzymatic reaction was stopped by immersing the vessel containing the reaction mixture in boiling waster for 6 min. Thereafter, the mixture is centrifuged at 10,000 rpm on a clinical centrifuge for 5 min.
The resulting free nucleosides, cytidine (C) and deoxycytidine (dC), in the supernatant were separated by thin layer chromatography on polyethyleneimine-cellulose plates pretreated with boric acid. Elution of 5 μl samples was accomplished using a solution of ethanol/20 mM aqueous ammonium formate (1:1), pH 4.7. Quantitation of radiolabel migrating as C and dC was carried out using radioanalytical imaging equipment (AMBIS Systems Inc., San Diego, CA, USA). substrate conversion was calculated as: [formula]
A unit of ribonucleotide reductase activity is defined as that amount which reduces one nmole of CDP/minute under the conditions described above. Activity was calculated from substrate conversion using the following relationship: [formula]
The conversion factor for the Hela assay was 0.108. Specific activity was expressed as units/mg of protein in the incubation mixture.
The peptides of formula 1 were tested at a minimum of three concentrations. IC50 's were estimated from graphs plotting the results for each peptide, the IC50 being the concentration of the peptide in micromoles (μM) producing 50% of the maximal inhibition of the enzyme.
For “Ac-FTLDADF [Example 2, AcPhe-Thr-Leu-Asp-Ala-Asp-Phe-OH]”, the IC50 (in general, the concentration needed to halve the response being measured) is 38 µM.

Still in this test, the particulars now being: Hela cell extract; table of Example 4; read-out: IC50.
Consider “Ac-NSFTLDADF-OH [Ac--Asn--Ser--Phe--Thr--Leu--Asp--Ala--Asp--Phe--OH]”, for which the half-maximal inhibitory concentration (IC50) was found to be 33 µM.
The same measure, in the same setting: in the case of “Ac-TENSFTLDADF [AcThr--Glu--Asn--Ser--Phe--Thr--Leu--Asp--Ala--Asp--Phe--OH]” it was 83 µM.
Same read-out and setting: in the case of “H-NSTENSFTLDADF-OH [H--Asn--Ser--Thr--Glu--Asn--Ser--Phe--Thr--Leu--Asp--Ala--Asp--Phe--OH]” it was 62 µM; in that of “H-TENSFTLDADF-OH [H--Thr--Glu--Asn--Ser--Phe--Thr--Leu--Asp--Ala--Asp--Phe--OH]”, 95 µM.
The same measure, in the same setting: in the case of “H-VISNSTENSFTLDADF-OH [H--Val--Ile--Ser--Asn--Ser--Thr--Glu--Asn--Ser--Phe--Thr--Leu--Asp--Ala--Asp--Phe--OH]” it was 49 µM.

Staying with this test, now noted: inhibition of human RR assay; list after the table; unit μM; read-out: IC50 (shown in parenthesis).
`CC(=O)N[C@@H](Cc1ccccc1)C(=O)N(C)[C@H](C(=O)N[C@@H](CC(C)C)C(=O)N[C@@H](CC(=O)O)C(=O)N[C@@H](C)C(=O)N[C@@H](CC(=O)O)C(=O)N[C@@H](Cc1ccccc1)C(=O)O)C(C)C` [AcPhe-N-Me-Val-Leu-Asp-Ala-Asp-Phe-OH] (Ac-F[NMeV]LDADF-OH): the IC50 was 48 µM.
Still for that read-out and setting: the same measure for `CC(=O)N[C@@H](Cc1ccccc1)C(=O)N[C@H](C(=O)N[C@@H](CC(C)C)C(=O)N[C@@H](CC(=O)N(C)C)C(=O)N[C@@H](C)C(=O)N[C@@H](CC(=O)O)C(=O)N[C@@H](Cc1ccccc1)C(=O)O)[C@@H](C)O` [AcPhe-Thr-Leu-Asp(NMe2)-Ala-Asp-Phe-OH] (Ac-FTLD(NMe2)ADF-OH): 58 µM; for `CC(=O)N[C@@H](Cc1ccccc1)C(=O)N[C@H](C(=O)N[C@@H](CC(C)C)C(=O)N[C@@H](CC(=O)O)C(=O)N[C@@H](C)C(=O)N[C@@H](CC(=O)O)C(=O)N[C@@H](CCc1ccccc1)C(=O)O)[C@@H](C)O` [AcPhe-Thr-Leu-Asp-Ala-Asp-homoPhe-OH] (Ac-FTLDAD[hPhe]-OH): 58 µM.
As to `CC(=O)N[C@@H](Cc1ccccc1)C(=O)N[C@H](C(=O)N[C@@H](CC(C)C)C(=O)N[C@@H](CC(=O)O)C(=O)N[C@@H](C)C(=O)N[C@H](CC(=O)O)C(=O)N[C@@H](Cc1ccccc1)C(=O)O)[C@@H](C)O` [AcPhe-Thr-Leu-Asp-Ala-D-Asp-Phe-OH] (Ac-FTLDA[dD]F-OH), the IC50 was 280 µM.
For `CC(=O)N[C@@H](Cc1ccccc1)C(=O)N[C@H](C(=O)N[C@@H](CC(C)C)C(=O)N[C@@H](CC(=O)O)C(=O)N[C@@H](C)C(=O)N(C)[C@@H](CC(=O)O)C(=O)N[C@@H](Cc1ccccc1)C(=O)O)[C@@H](C)O` [AcPhe-Thr-Leu-Asp-Ala-N-Me-Asp-Phe-OH] (Ac-FTLDA[NMeD]F-OH), the IC50 worked out at 46 µM.
The same measure, in the same setting: in the case of `CC(=O)N[C@@H](Cc1ccccc1)C(=O)N[C@H](C(=O)N[C@@H](CC(C)C)C(=O)N[C@@H](CC(=O)O)C(=O)N[C@H](C)C(=O)N[C@@H](CC(=O)O)C(=O)N[C@@H](Cc1ccccc1)C(=O)O)[C@@H](C)O` [AcPhe-Thr-Leu-Asp-D-Ala-Asp-Phe-OH] (Ac-FTLD[dA]DF-OH) it was 460 µM; in that of `CC(=O)N[C@@H](Cc1ccccc1)C(=O)N[C@H](C(=O)N[C@@H](CC(C)C)C(=O)N[C@H](CC(=O)O)C(=O)N[C@@H](C)C(=O)N[C@@H](CC(=O)O)C(=O)N[C@@H](Cc1ccccc1)C(=O)O)[C@@H](C)O` [AcPhe-Thr-Leu-D-Asp-Ala-Asp-Phe-OH] (Ac-FTL[dD]ADF-OH), 200 µM; in that of `CC(=O)N[C@@H](Cc1ccccc1)C(=O)N[C@H](C(=O)N(C)[C@@H](CC(C)C)C(=O)N[C@@H](CC(=O)O)C(=O)N[C@@H](C)C(=O)N[C@@H](CC(=O)O)C(=O)N[C@@H](Cc1ccccc1)C(=O)O)[C@@H](C)O` [AcPhe-Thr-N-Me-Leu-Asp-Ala-Asp-Phe-OH] (Ac-FT[NMeL]DADF-OH), 23 µM.
On the same count and under the same terms, in the case of “Ac-FTFNEDF [AcPhe-Thr-Phe-Asn-Glu-Asp-Phe-OH]” it was 150 µM; in that of “Ac-FTLDEDF [AcPhe-Thr-Leu-Asp-Glu-Asp-Phe-OH]”, 28 µM; in that of “Ac-FTLDVDF [AcPhe-Thr-Leu-Asp-Val-Asp-Phe-OH]”, 39 µM.
For the molecule “Ac-FTLFADF [AcPhe-Thr-Leu-Phe-Ala-Asp-Phe-OH]”, the IC50 is 73 µM.
The same measure, in the same setting: the same measure for “Ac-FTLGADF [AcPhe-Thr-Leu-Gly-Ala-Asp-Phe-OH]”: 150 µM.
In the case of “Ac-FTLNADF [AcPhe-Thr-Leu-Asn-Ala-Asp-Phe-OH]”, the IC50 stood at 31 µM.
In the case of “Ac-FTLQADF [AcPhe-Thr-Leu-Gln-Ala-Asp-Phe-OH]”, the IC50 turned out to be 120 µM.
Same read-out and setting: in the case of “H-PTENSFTLDADF-OH [H-Pro-Thr-Glu-Asn-Ser-Phe-Thr-Leu-Asp-Ala-Asp-Phe-OH]” it was 41 µM; in that of “H-SPTENSFTLDADF-OH [H-Ser-Pro-Thr-Glu-Asn-Ser-Phe-Thr-Leu-Asp-Ala-Asp-Phe-OH]”, 29 µM; in that of “H-SSPTENSFTLDADF-OH [H-Ser-Ser-Pro-Thr-Glu-Asn-Ser-Phe-Thr-Leu-Asp-Ala-Asp-Phe-OH]”, 26 µM.

(Values after patent US5071835A, “Ribonucleotide reductase inhibitors” (Bio-Mega Inc., priority 1989, dated 1991).)
